Experimental data: paper PMC4640567, “Cinnamic Acid Bornyl Ester Derivatives from Valeriana wallichii Exhibit Antileishmanial In Vivo Activity in Leishmania major-Infected BALB/c Mice” (PLoS ONE, 2015)
Where “and” joins values, the source holds several entries; their conditions need not be identical. Equal entries are not always repeated.

Assays:
[1] = test system: L. major promastigotes; assay: Annexin V / propidium iodide flow cytometry, cell death phenotype; format: cell-based, Leishmania major; conditions: 100 μM
Experimental: L. major parasites harvested from blood agar cultures were washed twice with Dulbecco’s phosphate-buffered saline (DPBS; Invitrogen, Darmstadt, Germany) and centrifuged at 3.000 × g for 10 min. The pellet was suspended in RPMI 1640 medium at a final concentration of 1 × 10^8 cells/ml. Cells were treated with 1% DMSO, 122.7 μM miltefosine (1-hexadecylphorylcholine; apoptosis inducer), or 100 μM of the tested compounds 1 and 2 in a final volume of 200 μl in 96 well plates. Samples were incubated at 27°C in 5% CO2 for several time points between 30 min and 24 h. Transmitted light microscopic, transmission electron microscopic (TEM), and flow cytometric techniques were used to find phenotypic patterns caused by the treatment with the tested compounds.
The loss of membrane integrity and translocation of phosphatidylserine (PS) to the outside of the cellular membrane can be determined by annexin V (AV) and propidium iodide (PI) staining. Double staining with AV-fluorescein isothiocyanate (FITC) and PI during flow cytometry analysis leads to discrimination between four populations: double negatives or alive cells (AV^-/PI^-), double positive or late necrotic/late apoptotic cells (AV^+/PI^+), PI-positive and AV-negative or early necrotic cells (AV^-/PI^+), and PI-negative and AV-positive or early apoptotic cells (AV^+/PI^-).
Parasites were harvested after incubation for 6 h, 10 h, and 24 h in the presence of compounds 1, 2 and miltefosine (Cayman Chemical Company, MI, USA), respectively, the latter serving as positive control for the induction of apoptotic cell death. DMSO was used as solvent control. Cell staining was performed using an AV-FITC Apoptosis detection kit (Sigma-Aldrich, Saint Louis, MO, USA). Cells were harvested, washed and suspended in 500 μL of binding buffer, 5 μL of AV-FITC and 10 μl of PI. The cells were incubated for 10 min in the dark at RT. Finally, stained samples were immediately analyzed by flow cytometry using MACSQuant analyzer or a flow cytometer (Becton Dickinson, San José, CA, USA).

[2] = AlamarBlue cytotoxicity, BMDM; format: cell-based; conditions: bone marrow-derived macrophages (BMDM)
Experimental: BMDM were generated in complete RPMI medium as described previously. On day six, the cytotoxicity against 2 × 10^5 cells/ml was tested at increasing concentrations of compounds 1 and 2 for 48 h. Human embryonic kidney HEK 293 T cells (ATCC, Wesel, Germany) were cultured in Dulbecco´s Modified Eagle Medium (DMEM) (Life Technologies, Darmstadt, Germany), with 10% FCS (PAA Laboratories, Germany). According to the standard operating procedures (SOP) within the Collaborative Research Center 630 (SFB 630) 2 × 10^4 HEK 293 T cells/ml were tested at increasing concentrations of compounds 1 and 2 for 48 h. Human liver carcinoma HepG2 cells (ATCC) were cultured in RPMI medium (Gibco) with 10% FCS. 1 × 10^5 cells/ml HepG2 were tested at increasing concentrations of 1 and 2 for 72 h according to the SOPs. The AlamarBlue assay was performed as described above for L. major parasites.

[3] = test system: L. major; assay: In vivo antileishmanial activity in L. major-infected BALB/c mice
Experimental: Female BALB/c mice (11 per group; three groups in total) were infected with 2 × 10^5 L. major promastigotes in 30 μL phosphate-buffered saline (PBS) into the right hind footpad under isoflurane inhalation anaesthesia using the UniVet Porta system (Groppler, Deggendorf, Germany). The clinical manifestation of L. major infection was monitored twice a week by determination of the body weight (g) and footpad size (mm) of the infected (iFP) and the non-infected footpad (niFP) serving as negative control. The footpad swelling describes the difference in mm between the iFP and niFP of individual mice. Three weeks post infection (p.i.) the mice were randomly divided into three groups of 11 for different treatment regimens. On day 21, 25, and 28 p.i. the respective groups were either left untreated, treated intraperitoneally (i.p.) with 100 μl of solvent (infected, 50% DMSO/PBS) or 100 μl 50 mg/kg/day of compound 2 in 50% DMSO/PBS. This high dose of compound 2 was chosen to identify its antileishmanial in vivo efficacy in L. major-infected BALB/c mice. The close monitoring of body weight and footpad swelling was continued until the end of experiment. On day 35 p.i. mice were sacrificed by CO2 inhalation and single cell suspensions from the iFP, draining popliteal lymph nodes (pLN) and spleens were obtained. The parasite burden was determined by limiting dilution assays as described previously. It was not necessary to apply any analgesics or anaesthetics during the animal trials.

[4] = 50 mg/kg/day i.p. days 21, 25, 28, day 35 p.i.

## CC1(C)C2CCC1(C)C(OC(=O)C=Cc1ccccc1)C2 (single isomer, unassigned; (-)) [Compound 1, (-)-Bornyl cinnamate]
[1]; 6 h
  LL: live cells (AV-/PI-): 71.3%
  LR: early apoptotic cells (AV+/PI-): 3.7%
  UL: early necrotic cells (AV-/PI+): 12.3%
  UR: necrotic/late apoptotic cells (AV+/PI+): 12.7%
[1]; 10 h
  LL: live cells (AV-/PI-): 69.3%
  LR: early apoptotic cells (AV+/PI-): 4.2%
  UL: early necrotic cells (AV-/PI+): 12.9%
  UR: necrotic/late apoptotic cells (AV+/PI+): 13.6%
[1]; 24 h
  Induced cell death phenotype (per definition): necrotic cell death phenotype
  LL: live cells (AV-/PI-): 33% and 33.2%
  LR: early apoptotic cells (AV+/PI-): 4.1%
  UL: early necrotic cells (AV-/PI+): 30% and 29.8%
  UR: necrotic/late apoptotic cells (AV+/PI+): 33% and 32.9%
[2]
  IC50 at 48 h: 54.3 µM

## CC1(C)C2CCC1(C)C(OC(=O)CCc1ccccc1)C2 (single isomer, unassigned; (-)) [Compound 2, (-)-bornyl 3-phenylpropionate]
[1]; 6 h
  LL: live cells (AV-/PI-): 54.4%
  LR: early apoptotic cells (AV+/PI-): 8.8%
  UL: early necrotic cells (AV-/PI+): 10.7%
  UR: necrotic/late apoptotic cells (AV+/PI+): 26.1%
[1]; 10 h
  LL: live cells (AV-/PI-): 47.2%
  LR: early apoptotic cells (AV+/PI-): 9.3%
  UL: early necrotic cells (AV-/PI+): 16.8%
  UR: necrotic/late apoptotic cells (AV+/PI+): 26.7%
[1]; 24 h
  Induced cell death phenotype (per definition): miltefosine-like cell death
  LL: live cells (AV-/PI-): 21% and 20.6%
  LR: early apoptotic cells (AV+/PI-): 19% and 18.5%
  UL: early necrotic cells (AV-/PI+): 24% and 24.2%
  UR: necrotic/late apoptotic cells (AV+/PI+): 37% and 36.7%
[2]
  IC50 at 48 h: > 100 µM
[3]; 50 mg/kg/day i.p. days 21, 25, 28
  Side effects in vivo: did not have any strong side effects
[3]; [4]
  Parasite burden in the spleen (LDA): only numerically reduced
  Reduction of parasite burden within the infected footpads (LDA): ~ 100 fold
  Reduction of parasite burden within the popliteal lymph nodes (LDA): ~ 10.000 fold
[3]; 50 mg/kg/day i.p. on days 21, 25, 28 p.i., during the treatment regimen
  Body weight of infected mice: not affected
[3]; 50 mg/kg/day i.p. on days 21, 25, 28 p.i., vs untreated or solvent control-treated mice
  Footpad swelling (difference between infected and non-infected footpad): reduced footpad swelling
